Reference: US10035820B2, “Compounds which inhibit neuronal exocytosis” (Lubrizol Advanced Materials, Inc., priority 2012, dated 2018)

System: human neuroblastoma cell line
Assay: Release of noradrenaline induced by TPA/Ionomycin in a neuroblastoma cell line, quantified by ELISA
Format: cell-based
Conditions: TPA/ION control = 100
Method: The induction of the release of noradrenaline with TPA (12-O-tetradecanoylphorbol-13-acetate)/Ionomycin enables direct measurement of neuronal exocytosis. For the study of the inhibitory effect of the compounds of the invention on the release of noradrenaline, cells of a human neuroblastoma cell line were pre-incubated (1×10^6 cells/well) for 60 minutes with the compound of the invention (1 μM, 10 μM, 100 μM, 500 μM or 1 mM compounds), and afterward the release of noradrenaline was induced. The release of the noradrenaline neurotransmitter was induced by an 8 minute pre-treatment with a solution of 12-O-tetradecanoylphorbol-13-acetate (TPA) 100 nM, which mobilized the intracellular vesicles which contained the neurotransmitter; followed by a 5 minute incubation with TPA/Ionomycin (100 nM/10 μM), which induced the release of the neurotransmitter contained in these vesicles. […] For this, absorbance at 405 nm was measured in Thermo Scientific Multiskan Ascent equipment.
The blocking of the SNARE complex by the compounds of the invention lead to an inhibition of neuronal exocytosis and therefore, a decrease in the levels of released noradrenaline (Table 6).

Ac-EELKRWM-NH2 [Ac-SEQ ID NO: 116-NH2]
% RELEASED NORADRENALINE Average (1 μM compound): 87.59%
% RELEASED NORADRENALINE Average (10 μM compound): 83.30%
% RELEASED NORADRENALINE Average (100 μM compound): 62.24%
% RELEASED NORADRENALINE Average (500 μM compound): 52.82%
% RELEASED NORADRENALINE Average (1000 μM compound): 43.10%

Ac-ENLKRWM-NH2 [Ac-SEQ ID NO: 117-NH2]
% RELEASED NORADRENALINE Average (1 μM compound): 87.99%
% RELEASED NORADRENALINE Average (10 μM compound): 83.11%
% RELEASED NORADRENALINE Average (100 μM compound): 70.76%
% RELEASED NORADRENALINE Average (500 μM compound): 58.37%
% RELEASED NORADRENALINE Average (1000 μM compound): 54.64%
